Laboratory results taken from the supplement of paper PMC10307832.

Columns and labels:
Assay in all cases: relative viability (nuclei count vs DMSO), 5 days (fraction); higher = more cells survive
[1] = compound: CC1=NN=C(O1)C2=NN=C(C=C2)N3CCC(CC3)OC4=C(C=CC(=C4)F)Cl + Nc1nc2[nH]cc(CCc3ccc(C(=O)N[C@@H](CCC(=O)O)C(=O)O)cc3)c2c(=O)[nH]1 [Pemetrexed] (partner 0.2 µM)
In short: (§1)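 Values are medians from duplicate plates. Each reflects relative viability, defined as the nuclei count of treated wells over that of vehicle wells. Lung cancer cell lines in 1536-well plates were pin-tool dosed one day after seeding with one drug alone or with a fixed anchor-drug dose plus five library-drug doses (not always all listed) in √10 steps, then fixed, stained and imaged at 4× after 5 days.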

Tosedostat + OSI-027 = compound: CC(C)C[C@@H](C(=O)N[C@H](C(=O)OC1CCCC1)c1ccccc1)[C@H](O)C(=O)NO [Tosedostat] + COc1cccc2cc(-c3nc([C@H]4CC[C@H](C(=O)O)CC4)n4ncnc(N)c34)[nH]c12 [OSI-027] (partner 0.5 µM)
In short: as §1

[2] = compound: CC1=NN=C(O1)C2=NN=C(C=C2)N3CCC(CC3)OC4=C(C=CC(=C4)F)Cl
In short: (§2)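 Viability was read as treated-well nuclei divided by vehicle-well nuclei, using the median across plates. Lung cancer cell lines in 1536-well plates were kept overnight at 37 °C, pinned with five √10-spaced library-drug doses, and after 5 days were Hoechst-stained, imaged at 4× and counted in MetaXpress. Plates passed only with control CV below 25% and at least one doubling.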

Tosedostat = compound: CC(C)C[C@@H](C(=O)N[C@H](C(=O)OC1CCCC1)c1ccccc1)[C@H](O)C(=O)NO [Tosedostat]
In short: as §2

| Cell Line | relative viability ([1]; first compound 0.253 µM) | relative viability ([1]; first compound 0.8 µM) | relative viability ([1]; first compound 2.53 µM) | relative viability ([1]; first compound 8 µM) | relative viability (Tosedostat + OSI-027; first compound 0.02 µM) | relative viability (Tosedostat + OSI-027; first compound 0.06325 µM) | relative viability (Tosedostat + OSI-027; first compound 0.2 µM) | relative viability (Tosedostat + OSI-027; first compound 0.6325 µM) | relative viability (Tosedostat + OSI-027; first compound 2 µM) | relative viability ([2]; 0.253 µM) | relative viability ([2]; 0.8 µM) | relative viability ([2]; 2.53 µM) | relative viability ([2]; 8 µM) | relative viability (Tosedostat; 0.02 µM) | relative viability (Tosedostat; 0.06325 µM) | relative viability (Tosedostat; 0.2 µM) | relative viability (Tosedostat; 0.6325 µM) | relative viability (Tosedostat; 2 µM) |
| --- | --- | --- | --- | --- | --- | --- | --- | --- | --- | --- | --- | --- | --- | --- | --- | --- | --- | --- |
| SK-LU-1 | 1.03 | 0.9 | 0.867 | 0.829 | 0.43 | 0.348 | 0.337 | 0.297 | 0.329 | 0.935 | 0.783 | 0.943 | 0.722 | 1.1 | 1.09 | 0.92 | 0.938 | 0.854 |
| SK-MES-1 | 0.681 | 0.853 | 0.828 | 0.628 | 0.532 | 0.59 | 0.595 | 0.538 | 0.396 | 0.859 | 0.79 | 0.912 | 0.783 | 1.03 | 1.02 | 1.01 | 0.965 | 0.953 |
| SW 900 |  | 0.444 | 0.486 | 0.449 | 0.619 | 0.505 | 0.544 | 0.476 | 0.322 |  | 0.545 | 0.805 | 0.574 | 0.887 | 0.952 | 0.855 | 0.767 | 0.669 |
| SW 1573 | 0.819 | 0.881 | 0.828 | 0.534 | 0.653 | 0.517 | 0.558 | 0.479 | 0.482 | 0.894 | 0.981 | 0.942 | 0.615 | 1.07 | 0.95 | 0.881 | 0.85 | 0.876 |
